Laboratory results taken from ChEMBL document CHEMBL4145510, “Discovery of a Keap1-dependent peptide PROTAC to knockdown Tau by ubiquitination-proteasome degradation pathway” (Eur J Med Chem, 2018).
The source made the active and inactive calls. The calls are words filed in the database; no cut-off is given here.

How the values were obtained:
[1] = target: T1, Kelch-like ECH-associated protein 1/Microtubule-associated protein tau/Cullin-3 (Homo sapiens) (UniProt P10636+Q14145+Q13618); experiment: Induction of Keap1/Cul3- mediated EGFP tagged Tau (unknown origin) degradation in human SH-SY5Y cells at 10 uM incubated for 10 hrs in absence of proteasome inhibitor MG132 by Western blot analysis; format: cell-based
[2] = target: Cullin-3/Microtubule-associated protein tau (Homo sapiens) (UniProt P10636+Q13618); experiment: Induction of Cul3- mediated EGFP tagged Tau (unknown origin) degradation in human SH-SY5Y cells harboring Keap1 siRNA at 10 uM by Western blot analysis; format: cell-based
[3] = target: T1, Kelch-like ECH-associated protein 1/Microtubule-associated protein tau/Cullin-3 (Homo sapiens); experiment: Induction of Keap1/Cul3- mediated EGFP tagged Tau (unknown origin) degradation in human SH-SY5Y cells at 20 uM after 10 hrs by flow cytometry analysis; format: cell-based
[4] = target: T1, Kelch-like ECH-associated protein 1/Microtubule-associated protein tau/Cullin-3 (Homo sapiens); experiment: Induction of Keap1/Cul3- mediated EGFP tagged Tau (unknown origin) degradation in human SH-SY5Y cells at 10 uM incubated for 10 hrs in presence of proteasome inhibitor MG132 by Western blot analysis; format: cell-based
[5] = target: Microtubule-associated protein tau (Homo sapiens, UniProt P10636); experiment: Binding affinity to human Tau (1 to 441 residues) by ITC method
[6] = target: Kelch-like ECH-associated protein 1 (Homo sapiens, UniProt Q14145); experiment: Binding affinity to human Keap1 (322 to 609 residues) by ITC method
[7] = Drug uptake in human SH-SY5Y cells using N-terminal TAMRA labeled compound at 10 uM after 8 hrs by DAPI staining-based laser scanning confocal microscopic analysis; format: ADME, cell-based
[8] = Drug uptake in human SH-SY5Y cells using N-terminal TAMRA labeled compound at 10 uM after 12 hrs by Flow cytometry analysis; format: ADME, cell-based
[9] = target: Kelch-like ECH-associated protein 1/Microtubule-associated protein tau (Homo sapiens) (UniProt P10636+Q14145); experiment: Binding affinity to Keap1/Tau in human SH-SY5Y cells at 10 to 20 uM by Western blot analysis; format: cell-based
[10] = Induction of Keap1/Cul3- mediated EGFP tagged Tau (unknown origin) degredation in mouse Neuro2a cells by Western blot analysis; format: cell-based
[11] = Induction of Keap1/Cul3- mediated EGFP tagged Tau (unknown origin) degradation in rat PC12 cells by Western blot analysis; format: cell-based

T1 sequence (P10636 whole entry, looked up): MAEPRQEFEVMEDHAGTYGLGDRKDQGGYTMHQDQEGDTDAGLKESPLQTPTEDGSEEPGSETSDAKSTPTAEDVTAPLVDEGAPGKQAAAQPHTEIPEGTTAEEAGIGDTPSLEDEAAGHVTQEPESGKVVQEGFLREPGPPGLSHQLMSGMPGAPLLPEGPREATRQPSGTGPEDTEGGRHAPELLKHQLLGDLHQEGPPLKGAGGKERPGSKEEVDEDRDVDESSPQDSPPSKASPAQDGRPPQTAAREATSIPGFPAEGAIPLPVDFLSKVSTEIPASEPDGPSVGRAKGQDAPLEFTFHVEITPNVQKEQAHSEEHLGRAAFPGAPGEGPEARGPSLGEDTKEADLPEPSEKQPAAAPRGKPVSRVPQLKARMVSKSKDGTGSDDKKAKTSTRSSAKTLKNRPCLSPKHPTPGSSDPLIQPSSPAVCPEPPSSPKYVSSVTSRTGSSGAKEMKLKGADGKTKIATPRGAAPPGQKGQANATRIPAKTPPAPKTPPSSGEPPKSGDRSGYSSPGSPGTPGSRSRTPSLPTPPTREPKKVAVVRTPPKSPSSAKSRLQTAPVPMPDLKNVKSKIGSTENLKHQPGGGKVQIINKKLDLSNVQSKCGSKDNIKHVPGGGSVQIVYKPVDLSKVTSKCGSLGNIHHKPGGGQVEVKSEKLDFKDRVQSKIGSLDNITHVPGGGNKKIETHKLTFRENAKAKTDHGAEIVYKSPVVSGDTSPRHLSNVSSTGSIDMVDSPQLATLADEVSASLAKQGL
T1 sequence (Q13618 whole entry, looked up): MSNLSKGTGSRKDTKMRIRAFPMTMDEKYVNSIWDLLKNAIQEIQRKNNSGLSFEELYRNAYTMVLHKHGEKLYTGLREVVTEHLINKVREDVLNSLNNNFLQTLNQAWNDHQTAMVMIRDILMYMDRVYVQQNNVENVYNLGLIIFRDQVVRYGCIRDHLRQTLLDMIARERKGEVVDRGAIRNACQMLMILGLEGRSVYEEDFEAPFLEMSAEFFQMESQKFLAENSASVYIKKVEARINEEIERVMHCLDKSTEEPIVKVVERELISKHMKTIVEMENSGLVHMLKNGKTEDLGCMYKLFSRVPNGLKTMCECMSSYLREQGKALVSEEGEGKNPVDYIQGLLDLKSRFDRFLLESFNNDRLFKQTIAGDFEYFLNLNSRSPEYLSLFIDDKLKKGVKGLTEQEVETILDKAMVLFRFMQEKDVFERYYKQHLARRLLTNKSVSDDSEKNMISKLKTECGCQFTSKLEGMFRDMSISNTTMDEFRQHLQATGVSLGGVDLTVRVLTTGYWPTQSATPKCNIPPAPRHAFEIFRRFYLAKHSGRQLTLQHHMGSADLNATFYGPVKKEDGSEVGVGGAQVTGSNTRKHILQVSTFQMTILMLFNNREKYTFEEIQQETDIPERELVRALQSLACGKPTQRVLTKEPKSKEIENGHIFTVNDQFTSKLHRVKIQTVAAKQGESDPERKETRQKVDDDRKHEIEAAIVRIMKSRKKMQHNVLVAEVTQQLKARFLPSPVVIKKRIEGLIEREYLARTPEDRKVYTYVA
T1 sequence (Q14145 whole entry, looked up): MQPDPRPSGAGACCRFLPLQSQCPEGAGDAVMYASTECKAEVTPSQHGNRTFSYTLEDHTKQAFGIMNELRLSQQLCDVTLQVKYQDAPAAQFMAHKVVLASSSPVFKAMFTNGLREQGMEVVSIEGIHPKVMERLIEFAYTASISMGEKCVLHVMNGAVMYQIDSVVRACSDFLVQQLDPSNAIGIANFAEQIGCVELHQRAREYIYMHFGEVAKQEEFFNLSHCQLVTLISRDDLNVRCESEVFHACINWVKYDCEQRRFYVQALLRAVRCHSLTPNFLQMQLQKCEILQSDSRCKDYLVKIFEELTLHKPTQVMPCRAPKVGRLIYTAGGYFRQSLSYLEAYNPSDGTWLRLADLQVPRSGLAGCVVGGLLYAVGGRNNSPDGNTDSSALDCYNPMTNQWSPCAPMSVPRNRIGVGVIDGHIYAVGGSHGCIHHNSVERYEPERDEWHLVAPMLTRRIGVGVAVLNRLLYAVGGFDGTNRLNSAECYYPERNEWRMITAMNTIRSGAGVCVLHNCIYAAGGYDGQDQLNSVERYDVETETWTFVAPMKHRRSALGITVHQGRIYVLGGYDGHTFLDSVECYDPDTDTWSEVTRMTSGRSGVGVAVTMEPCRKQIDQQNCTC
Sequence of Cullin-3/Microtubule-associated protein tau (Homo sapiens) (P10636 whole entry, looked up): as the sequence (P10636 whole entry, looked up) above
Sequence of Cullin-3/Microtubule-associated protein tau (Homo sapiens) (Q13618 whole entry, looked up): as the sequence (Q13618 whole entry, looked up) above
Sequence of Microtubule-associated protein tau (P10636 whole entry, the tested form may be a part): as the sequence (P10636 whole entry, looked up) above
Sequence of Kelch-like ECH-associated protein 1/Microtubule-associated protein tau (Homo sapiens) (P10636 whole entry, looked up): as above
Sequence of Kelch-like ECH-associated protein 1/Microtubule-associated protein tau (Homo sapiens) (Q14145 whole entry, looked up): as the sequence (Q14145 whole entry, looked up) above
Sequence of Kelch-like ECH-associated protein 1 (Q14145 whole entry, the tested form may be a part): as the sequence (Q14145 whole entry, looked up) above

Structure (SMILES) | Activity [1] | Activity [2] | Activity [3] | Activity [4] | other results
CC(=O)N[C@@H](Cc1ccc(O)cc1)C(=O)N[C@@H](CCC(N)=O)C(=O)N[C@@H](CCC(N)=O)C(=O)N[C@@H](Cc1ccc(O)cc1)C(=O)N[C@@H](CCC(N)=O)C(=O)N[C@@H](CC(=O)O)C(=O)N[C@@H](C)C(=O)N[C@H](C(=O)N[C@@H](C)C(=O)N[C@@H](CC(=O)O)C(=O)N[C@@H](CCC(=O)O)C(=O)N[C@@H](CCC(N)=O)C(=O)NCC(=O)NCC(=O)N[C@@H](CO)C(=O)NCC(=O)N[C@@H](CO)C(=O)N[C@@H](CC(C)C)C(=O)N[C@@H](CC(=O)O)C(=O)N1CCC[C@H]1C(=O)N[C@@H](C)C(=O)N[C@H](C(=O)NCC(=O)N[C@@H](CCC(=O)O)C(=O)N[C@@H](Cc1ccc(O)cc1)C(=O)N[C@@H](CC(C)C)C(=O)N[C@H](CCCNC(=N)N)C(=O)N[C@H](CCCNC(=N)N)C(=O)N[C@H](CCCNC(=N)N)C(=O)N[C@H](CCCNC(=N)N)C(=O)N[C@H](CCCNC(=N)N)C(=O)N[C@H](CCCNC(=N)N)C(=O)N[C@H](CCCNC(=N)N)C(=O)N[C@H](CCCNC(=N)N)C(=O)O)[C@@H](C)O)[C@@H](C)O | inactive | inactive | inactive | inactive | 
CC(=O)N[C@@H](Cc1ccc(O)cc1)C(=O)N[C@@H](CCC(N)=O)C(=O)N[C@@H](CCC(N)=O)C(=O)N[C@@H](Cc1ccc(O)cc1)C(=O)N[C@@H](CCC(N)=O)C(=O)N[C@@H](CC(=O)O)C(=O)N[C@@H](C)C(=O)N[C@H](C(=O)N[C@@H](C)C(=O)N[C@@H](CC(=O)O)C(=O)N[C@@H](CCC(=O)O)C(=O)N[C@@H](CCC(N)=O)C(=O)NCC(=O)NCC(=O)N[C@@H](CO)C(=O)NCC(=O)N[C@@H](CO)C(=O)N[C@@H](CC(C)C)C(=O)N[C@@H](CC(=O)O)C(=O)N1CCC[C@H]1C(=O)N[C@@H](CCC(=O)O)C(=O)N[C@H](C(=O)NCC(=O)N[C@@H](CCC(=O)O)C(=O)N[C@@H](Cc1ccc(O)cc1)C(=O)N[C@@H](CC(C)C)C(=O)N[C@H](CCCNC(=N)N)C(=O)N[C@H](CCCNC(=N)N)C(=O)N[C@H](CCCNC(=N)N)C(=O)N[C@H](CCCNC(=N)N)C(=O)N[C@H](CCCNC(=N)N)C(=O)N[C@H](CCCNC(=N)N)C(=O)N[C@H](CCCNC(=N)N)C(=O)N[C@H](CCCNC(=N)N)C(=O)O)[C@@H](C)O)[C@@H](C)O | Active | inactive | Active | inactive | Kd [5]: 763 nM; Kd [6]: 22.8 nM; Drug uptake [7]: Active; Drug uptake [8]: Active; Activity [9]: Active; Activity [10]: Dose-dependent effect; Activity [11]: Dose-dependent effect
CC(=O)N[C@@H](Cc1ccc(O)cc1)C(=O)N[C@@H](CCC(N)=O)C(=O)N[C@@H](CCC(N)=O)C(=O)N[C@@H](Cc1ccc(O)cc1)C(=O)N[C@@H](CCC(N)=O)C(=O)N[C@@H](CC(=O)O)C(=O)N[C@@H](C)C(=O)N[C@H](C(=O)N[C@@H](C)C(=O)N[C@@H](CC(=O)O)C(=O)N[C@@H](CCC(=O)O)C(=O)N[C@@H](CCC(N)=O)C(=O)NCC(=O)NCC(=O)NCC(=O)N[C@@H](CO)C(=O)NCC(=O)NCC(=O)N[C@@H](CC(C)C)C(=O)N[C@@H](CC(=O)O)C(=O)N1CCC[C@H]1C(=O)N[C@@H](CCC(=O)O)C(=O)N[C@H](C(=O)NCC(=O)N[C@@H](CCC(=O)O)C(=O)N[C@@H](Cc1ccc(O)cc1)C(=O)N[C@@H](CC(C)C)C(=O)N[C@H](CCCNC(=N)N)C(=O)N[C@H](CCCNC(=N)N)C(=O)N[C@H](CCCNC(=N)N)C(=O)N[C@H](CCCNC(=N)N)C(=O)N[C@H](CCCNC(=N)N)C(=O)N[C@H](CCCNC(=N)N)C(=O)N[C@H](CCCNC(=N)N)C(=O)N[C@H](CCCNC(=N)N)C(=O)O)[C@@H](C)O)[C@@H](C)O |  |  | inactive |  | 

Now from value to compound, other results behind:

Activity [1] | Activity [2] | Activity [3] | Activity [4] | Structure (SMILES) | other results
 |  | Active |  | CC(=O)N[C@@H](Cc1ccc(O)cc1)C(=O)N[C@@H](CCC(N)=O)C(=O)N[C@@H](CCC(N)=O)C(=O)N[C@@H](Cc1ccc(O)cc1)C(=O)N[C@@H](CCC(N)=O)C(=O)N[C@@H](CC(=O)O)C(=O)N[C@@H](C)C(=O)N[C@H](C(=O)N[C@@H](C)C(=O)N[C@@H](CC(=O)O)C(=O)N[C@@H](CCC(=O)O)C(=O)N[C@@H](CCC(N)=O)C(=O)NCC(=O)NCC(=O)N[C@@H](CO)C(=O)NCC(=O)N[C@@H](CO)C(=O)N[C@@H](CC(C)C)C(=O)N[C@@H](CC(=O)O)C(=O)N1CCC[C@H]1C(=O)N[C@@H](CCC(=O)O)C(=O)N[C@H](C(=O)NCC(=O)N[C@@H](CCC(=O)O)C(=O)N[C@@H](Cc1ccccc1)C(=O)N[C@@H](CC(C)C)C(=O)N[C@H](CCCNC(=N)N)C(=O)N[C@H](CCCNC(=N)N)C(=O)N[C@H](CCCNC(=N)N)C(=O)N[C@H](CCCNC(=N)N)C(=O)N[C@H](CCCNC(=N)N)C(=O)N[C@H](CCCNC(=N)N)C(=O)N[C@H](CCCNC(=N)N)C(=O)N[C@H](CCCNC(=N)N)C(=O)O)[C@@H](C)O)[C@@H](C)O | 
 |  | Active |  | CC(=O)N[C@@H](CCCCN)C(=O)N[C@@H](CC(=O)O)C(=O)N[C@@H](Cc1ccc(O)cc1)C(=O)N[C@@H](CCC(=O)O)C(=O)N[C@@H](CCC(=O)O)C(=O)N[C@H](C(=O)NCC(=O)N[C@H](C(=O)N[C@@H](CC(=O)O)C(=O)N[C@@H](CO)C(=O)N[C@H](C(=O)N[C@@H](CCC(=O)O)C(=O)NCC(=O)N[C@@H](CO)C(=O)NCC(=O)N[C@@H](CO)C(=O)N[C@@H](CC(C)C)C(=O)N[C@@H](CC(=O)O)C(=O)N1CCC[C@H]1C(=O)N[C@@H](CCC(=O)O)C(=O)N[C@H](C(=O)NCC(=O)N[C@@H](CCC(=O)O)C(=O)N[C@@H](Cc1ccc(O)cc1)C(=O)N[C@@H](CC(C)C)C(=O)N[C@H](CCCNC(=N)N)C(=O)N[C@H](CCCNC(=N)N)C(=O)N[C@H](CCCNC(=N)N)C(=O)N[C@H](CCCNC(=N)N)C(=O)N[C@H](CCCNC(=N)N)C(=O)N[C@H](CCCNC(=N)N)C(=O)N[C@H](CCCNC(=N)N)C(=O)N[C@H](CCCNC(=N)N)C(=O)O)[C@@H](C)O)C(C)C)C(C)C)C(C)C | 
